Experimental findings from paper PMC10783014, “Structure-based virtual screening and in vitro validation of inhibitors of cyclic dinucleotide phosphodiesterases ENPP1 and CdnP” (Microbiology Spectrum, 2023) are described below.

One experiment concerns Vero cells. The experiment is described as follows: Vero cell cytotoxicity, resazurin dye reduction assay. The class given is cell-based, African green monkey. Background: Alamar Blue is a resazurin reagent that responds to reducing activity.
The next experiment deals with T1, human ENPP1 (Homo sapiens, UniProt P22413).
T1 construct: purchased Origene
T1 sequence (P22413 1-925): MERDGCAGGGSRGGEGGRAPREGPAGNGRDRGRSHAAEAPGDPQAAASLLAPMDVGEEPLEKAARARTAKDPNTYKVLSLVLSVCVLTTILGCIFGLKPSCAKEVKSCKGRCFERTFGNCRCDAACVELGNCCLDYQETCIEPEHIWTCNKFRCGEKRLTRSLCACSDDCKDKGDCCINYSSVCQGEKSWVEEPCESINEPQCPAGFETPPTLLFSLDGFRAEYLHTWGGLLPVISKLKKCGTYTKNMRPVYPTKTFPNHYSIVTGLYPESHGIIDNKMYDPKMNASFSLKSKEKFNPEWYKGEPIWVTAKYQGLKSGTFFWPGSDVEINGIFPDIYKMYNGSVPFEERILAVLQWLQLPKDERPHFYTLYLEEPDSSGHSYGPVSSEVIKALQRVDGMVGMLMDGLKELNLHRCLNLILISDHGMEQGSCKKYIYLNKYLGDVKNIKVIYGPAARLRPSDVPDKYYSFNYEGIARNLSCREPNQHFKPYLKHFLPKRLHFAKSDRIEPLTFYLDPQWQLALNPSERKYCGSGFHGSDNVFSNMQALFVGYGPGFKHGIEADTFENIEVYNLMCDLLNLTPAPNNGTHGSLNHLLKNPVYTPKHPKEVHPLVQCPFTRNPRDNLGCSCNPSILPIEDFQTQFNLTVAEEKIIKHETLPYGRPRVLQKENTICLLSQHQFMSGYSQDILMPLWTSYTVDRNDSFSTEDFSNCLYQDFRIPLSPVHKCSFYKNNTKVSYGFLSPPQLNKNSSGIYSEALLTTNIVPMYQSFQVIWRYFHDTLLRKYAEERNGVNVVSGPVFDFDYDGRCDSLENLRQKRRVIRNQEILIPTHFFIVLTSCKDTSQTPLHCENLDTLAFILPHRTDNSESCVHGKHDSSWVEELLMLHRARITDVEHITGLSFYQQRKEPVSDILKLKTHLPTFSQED
The experiment is described as follows: Luminescence-based AMP-Glo ENPP1 enzyme inhibition assay with 2′,3′-cGAMP substrate. Type of experiment: biochemical. Particulars: 2′,3′-cGAMP 300 µM, ENPP1 5 µM.

The target in experiment [1] is T2, M.tb CdnP (Mycobacterium tuberculosis, UniProt P71615). The experiment can be described thus: biochemical.
The subject of experiment [2] is RAW-Blue IRF3 ISG reporter macrophages. The experiment can be described thus: IRF3 induction in RAW-Blue IRF3-SEAP reporter macrophages after 2′,3′-cGAMP transfection (QUANTI-Blue). The class given is cell-based, mouse. As to conditions: 165 µM E-3 plus 1 nM 2′,3′-cGAMP, 24 h.
Experiment [3] concerns primary human monocyte-derived macrophages (hMDMs). The experiment can be described thus: IFN-β release by human monocyte-derived macrophages after 2′,3′-cGAMP transfection (ELISA). The class given is cell-based. On the technique in general: In an ELISA, binding on a coated surface is turned into a signal by an enzyme label.
Experiment [4] concerns the target T2, M.tb CdnP. The class given is biochemical.
The mark [5] stands for this setting: Chlorocebus sabaeus, Vero, 48 h, Vero cell growth inhibition, 48 h then resazurin overnight, read-out: IC50 Vero cells.
Where [6] appears, read: Vero cell growth inhibition, 48 h then resazurin overnight, read-out: IC50 Vero cells.
Setting [7] is: 1 nM 2′,3′-cGAMP in the presence of 165 µM E-3, 24 h.
The mark [8] stands for this setting: Vero cell growth inhibition, 48 h then resazurin overnight.

Converted amounts (≈) assume the structure as drawn. “And” between values parts separate entries of the source, which are not always exact repeats. Equal values may be shown once. Read-outs that look alike come from different tables or passages of the source. A value given as a limit tells only on which side of the number the result lay.

T2 sequence (P71615 whole entry, looked up): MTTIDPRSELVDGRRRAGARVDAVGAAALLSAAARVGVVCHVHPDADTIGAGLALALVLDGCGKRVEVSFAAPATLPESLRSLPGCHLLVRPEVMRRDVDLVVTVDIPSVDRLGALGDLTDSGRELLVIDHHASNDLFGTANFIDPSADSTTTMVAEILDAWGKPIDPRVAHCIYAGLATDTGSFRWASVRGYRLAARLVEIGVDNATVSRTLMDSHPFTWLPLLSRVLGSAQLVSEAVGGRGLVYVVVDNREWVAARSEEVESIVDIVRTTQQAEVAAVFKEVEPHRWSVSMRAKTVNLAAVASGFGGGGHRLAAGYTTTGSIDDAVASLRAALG

The term IC50 denotes the point on the concentration scale where inhibition reaches its midpoint. As for `O=S(=O)(NN=c1nc(N2CCCC2)[nH]c(N2CCCC2)n1)c1ccccc1` [Inhibitor C-33], the concentration for half-maximal inhibition (IC50) was more than 100 µg/mL with Vero cells (setting [5]); more than 257 µM in the experiment on Vero cells (setting [6]); 60.5 µM and 60.3 µM on human ENPP1; 18.8 µM and 18.7 µM at M.tb CdnP [1] (IC50 CdnP).
As for `Cc1c2cc[n+](C)cc2c(COC2OC(CO)C(O)C2O)c2c3ccccc3n(C)c12` (stereo not drawn) [Inhibitor C-29], the concentration for half-maximal inhibition (IC50) in the experiment on Vero cells (setting [5]) was more than 100 µg/mL; with Vero cells (setting [6]), more than 237 µM; on human ENPP1, 19.4 µM; against M.tb CdnP [1] (IC50 CdnP) it was 14.2 µM.
Turning to `Cc1ccc(Nc2nc(N)nc(Nc3ccc4ccccc4c3)n2)cc1` [Inhibitor E-3], the IC50 was more than 100 µg/mL in the experiment on Vero cells (setting [5]); more than 264 µM in the experiment with Vero cells (setting [6]); 26.4 µM and 29.2 µM against human ENPP1. For the same compound, in experiment [2], the “IRF induction (SEAP signal)” value was 1.1 A655 units. Also, in experiment [2], the “fold increased IRF signal versus cGAMP alone” value was determined as 2.75 fold. Further, the IFN-β release turned out to be 95 pg/mL in experiment [3] (setting [7]) and 10 pg/mL in experiment [3] (165 µM E-3 alone, no cGAMP). Moreover, the “fold increase in IFN-β release versus cGAMP alone” value in experiment [3] (setting [7]) came out at 2.1 fold.
In the case of `O=C(C[N+]12CN3CN(CN(C3)C1)C2)c1ccc2ccccc2c1` [Inhibitor C-5], in the experiment on Vero cells (setting [8]), the “IC50 Vero cells” value is recorded as 60 µg/mL. The figures for the IC50 in the experiment with Vero cells (setting [6]), against human ENPP1 and on M.tb CdnP [1] (read-out: IC50 CdnP) were 154 µM, more than 257 µM and 28.8 µM, respectively. Also, the “IC50 ENPP1” value at human ENPP1 was more than 100 µg/mL. In addition, on M.tb CdnP [1], the “IC50 CdnP” value is on record as 28.8 (11.2) µg/mL.
For `NC1CC2NC3CCCCC3NC2CC1N` (stereo not drawn) [Inhibitor E-37], the IC50 is more than 100 µg/mL in the experiment with Vero cells (Chlorocebus sabaeus, Vero, 48 h, read-out: IC50 Vero cells, Vero cell growth inhibition, 48 h then resazurin overnight); more than 446 µM in the experiment on Vero cells (read-out: IC50 Vero cells, Vero cell growth inhibition, 48 h then resazurin overnight); 44.6 µM at human ENPP1.
As usually defined, the Km is the concentration of substrate that gives half-maximal velocity. For the compound c-di-AMP, at M.tb CdnP [4], the Km turned out to be 51.4 µM and the “Vmax for CdnP” value is recorded as 0.5664 µM/min.
With `O=C(Nc1n[nH]c(NC(=O)c2ccccc2)n1)c1ccccc1` [Inhibitor E-27], the figures for the IC50 with Vero cells (setting [5]), in the experiment with Vero cells (setting [6]) and on human ENPP1 were more than 100 µg/mL, more than 326 µM and 16.3 µM, respectively.
For the compound `O=C(NNc1nc(NC2CCCCC2)nc(NC2CCCCC2)n1)c1ccccc1` [Inhibitor E-60], the IC50 is more than 100 µg/mL with Vero cells (setting [5]); more than 245 µM in the experiment on Vero cells (setting [6]); 9.8 µM and 9.77 µM against human ENPP1.
On to `c1cc2c(cc1C(N1CCNCC1)N1CCNCC1)OCO2` [Inhibitor E-12], for which the “IC50 Vero cells” value in the experiment on Vero cells (setting [8]) is given as more than 100 µg/mL. In addition, the IC50 with Vero cells (setting [6]) is more than 329 µM; at human ENPP1 it was 41.1 µM. Also, at human ENPP1, the “IC50 ENPP1” value worked out at 12.5 µg/mL (≈ 41.1 µM).
Take `NNc1nc(N2CCCCC2)c2[nH]cnc2n1` [Inhibitor C-76]: the “IC50 Vero cells” value in the experiment with Vero cells (setting [8]) was more than 100 µg/mL. The figures for the half-maximal inhibitory concentration (IC50) with Vero cells (setting [6]), on human ENPP1 and at M.tb CdnP [1] (read-out: IC50 CdnP) were more than 429 µM, more than 429 µM and 42.9 µM, respectively. At human ENPP1, the “IC50 ENPP1” value is more than 100 µg/mL. Besides, at M.tb CdnP [1], the “IC50 CdnP” value is listed as 42.9 (10) µg/mL.
In the case of `Cc1ccc(S(=O)(=O)NN=c2nc(N3CCCC3)[nH]c(N3CCCC3)n2)cc1` [Inhibitor C-34], the IC50 was more than 100 µg/mL in the experiment with Vero cells (setting [5]); more than 247 µM in the experiment with Vero cells (setting [6]); 63.3 µM and 63.4 µM on human ENPP1; 13.1 µM against M.tb CdnP [1] (IC50 CdnP).
As to `CC(OCCCCOC(C)n1cnc2c(=O)nc[nH]c21)n1cnc2c(=O)nc[nH]c21` (stereo not drawn) [Inhibitor C-13], the IC50 was more than 100 µg/mL in the experiment with Vero cells (setting [5]); more than 241 µM with Vero cells (setting [6]); more than 241 µM against human ENPP1; 9.66 µM and 9.65 µM against M.tb CdnP [1] (IC50 CdnP).
